Results: patent US11427549B2, “Pyrimidinyloxy benzo-fused compounds as herbicides” (FMC Corporation, priority 2017, dated 2022)

Experiments:
[1] = test system: rice (Oryza sativa); experiment: Test B flooded paddy test, rice; conditions: Oryza sativa, read-out: Plant response rating, Rice (0 to 100 scale, 0 is no effect, 100 is complete control)
[2] = test system: barnyardgrass (Echinochloa crus-galli); experiment: Test A postemergence, barnyardgrass; assay type: in vivo; conditions: Echinochloa crus-galli, post-emergence, 240 h, 0 to 100 scale (0 no effect, 100 complete control), read-out: Plant response rating, Barnyardgrass; for pest or weed control at 31 g/ha: 31 g ai/ha; for pest or weed control at 125 g/ha: 125 g ai/ha
Text: (§1) Seeds of plant species selected from barnyardgrass (Echinochloa crus-galli), kochia (Kochia scoparia), ragweed (common ragweed, Ambrosia elatior), ryegrass, Italian (Italian ryegrass, Lolium multiflorum), foxtail, giant (giant foxtail, Setaria faberii), foxtail, green (green foxtail, Setaria viridis) and pigweed (Amaranthus retroflexus) were planted into a blend of loam soil and sand and treated preemergence with a directed soil spray using test chemicals formulated in a non-phytotoxic solvent mixture which included a surfactant.
(§2) At the same time, plants selected from these weed species and also wheat (Triticum aestivum), corn (Zea mays), blackgrass (Alopecurus myosuroides), and galium (catchweed bedstraw, Galium aparine) were planted in pots containing the same blend of loam soil and sand and treated with postemergence applications of test chemicals formulated in the same manner. Plants ranged in height from 2 to 10 cm and were in the one- to two-leaf stage for the postemergence treatment. Treated plants and untreated controls were maintained in a greenhouse for approximately 10 days, after which time all treated plants were compared to untreated controls and visually evaluated for injury. […] A dash (-) response means no test result.

[3] = test system: ryegrass, Italian (Italian ryegrass, Lolium multiflorum); experiment: Test A preemergence, ryegrass, Italian; assay type: in vivo; conditions: Lolium multiflorum, pre-emergence, 240 h, 0 to 100 scale (0 no effect, 100 complete control), read-out: Plant response rating, Ryegrass, Italian; for pest or weed control at 31 g/ha: 31 g ai/ha; for pest or weed control at 125 g/ha: 125 g ai/ha
Text: as §1, §2

[4] = test system: ragweed (common ragweed, Ambrosia elatior); experiment: Test A postemergence, ragweed; assay type: in vivo; conditions: Ambrosia artemisiifolia, post-emergence, 240 h, 0 to 100 scale (0 no effect, 100 complete control), read-out: Plant response rating, Ragweed; for pest or weed control at 31 g/ha: 31 g ai/ha; for pest or weed control at 125 g/ha: 125 g ai/ha
Text: as §1, §2

[5] = test system: pigweed (Amaranthus retroflexus); experiment: Test A preemergence, pigweed; assay type: in vivo; conditions: Amaranthus retroflexus, pre-emergence, 240 h, 0 to 100 scale (0 no effect, 100 complete control), read-out: Plant response rating, Pigweed; for pest or weed control at 31 g/ha: 31 g ai/ha; for pest or weed control at 125 g/ha: 125 g ai/ha
Text: as §1, §2

[6] = test system: barnyardgrass (Echinochloa crus-galli); experiment: Test B flooded paddy test, barnyardgrass; conditions: Echinochloa crus-galli, read-out: Plant response rating, Barnyardgrass (0 to 100 scale, 0 is no effect, 100 is complete control)
[7] = test system: ducksalad (Heteranthera limosa); experiment: Test B flooded paddy test, ducksalad; conditions: Heteranthera limosa, read-out: Plant response rating, Ducksalad (0 to 100 scale, 0 is no effect, 100 is complete control)
[8] = test system: ryegrass, Italian (Italian ryegrass, Lolium multiflorum); experiment: Test A postemergence, ryegrass, Italian; assay type: in vivo; conditions: Lolium multiflorum, post-emergence, 240 h, 0 to 100 scale (0 no effect, 100 complete control), read-out: Plant response rating, Ryegrass, Italian; for pest or weed control at 31 g/ha: 31 g ai/ha; for pest or weed control at 125 g/ha: 125 g ai/ha
Text: as §1, §2

[9] = test system: galium (catchweed bedstraw, Galium aparine); experiment: Test A postemergence, galium; assay type: in vivo; conditions: Galium, post-emergence, 240 h, 0 to 100 scale (0 no effect, 100 complete control), read-out: Plant response rating, Galium; for pest or weed control at 31 g/ha: 31 g ai/ha; for pest or weed control at 125 g/ha: 125 g ai/ha
Text: as §1, §2

[10] = test system: blackgrass (Alopecurus myosuroides); experiment: Test A postemergence, blackgrass; assay type: in vivo; conditions: Alopecurus myosuroides, post-emergence, 240 h, 0 to 100 scale (0 no effect, 100 complete control), read-out: Plant response rating, Blackgrass; for pest or weed control at 31 g/ha: 31 g ai/ha; for pest or weed control at 125 g/ha: 125 g ai/ha
Text: as §1, §2

[11] = test system: corn (Zea mays); experiment: Test A postemergence, corn; assay type: in vivo; conditions: Zea mays, post-emergence, 240 h, 0 to 100 scale (0 no effect, 100 complete control); for Corn plant response rating (crop injury, 0 = no effect, 100 = complete kill) at 31 g/ha: 31 g ai/ha; for Corn plant response rating (crop injury, 0 = no effect, 100 = complete kill) at 125 g/ha: 125 g ai/ha
Text: as §1, §2

[12] = test system: kochia (Kochia scoparia); experiment: Test A postemergence, kochia; assay type: in vivo; conditions: Bassia scoparia, post-emergence, 240 h, 0 to 100 scale (0 no effect, 100 complete control), read-out: Plant response rating, Kochia; for pest or weed control at 31 g/ha: 31 g ai/ha; for pest or weed control at 125 g/ha: 125 g ai/ha
Text: as §1, §2

[13] = test system: barnyardgrass (Echinochloa crus-galli); experiment: Test A preemergence, barnyardgrass; assay type: in vivo; conditions: Echinochloa crus-galli, pre-emergence, 240 h, 0 to 100 scale (0 no effect, 100 complete control), read-out: Plant response rating, Barnyardgrass; for pest or weed control at 31 g/ha: 31 g ai/ha; for pest or weed control at 125 g/ha: 125 g ai/ha
Text: as §1, §2

[14] = test system: wheat (Triticum aestivum); experiment: Test A postemergence, wheat; assay type: in vivo; conditions: Triticum aestivum, post-emergence, 240 h, 0 to 100 scale (0 no effect, 100 complete control), read-out: Plant response rating, Wheat; for plant injury at 31 g/ha: 31 g ai/ha; for plant injury at 125 g/ha: 125 g ai/ha
Text: as §1, §2

[15] = test system: pigweed (Amaranthus retroflexus); experiment: Test A postemergence, pigweed; assay type: in vivo; conditions: Amaranthus retroflexus, post-emergence, 240 h, 0 to 100 scale (0 no effect, 100 complete control), read-out: Plant response rating, Pigweed; for pest or weed control at 31 g/ha: 31 g ai/ha; for pest or weed control at 125 g/ha: 125 g ai/ha
Text: as §1, §2

[16] = test system: kochia (Kochia scoparia); experiment: Test A preemergence, kochia; assay type: in vivo; conditions: Bassia scoparia, pre-emergence, 240 h, 0 to 100 scale (0 no effect, 100 complete control), read-out: Plant response rating, Kochia; for pest or weed control at 31 g/ha: 31 g ai/ha; for pest or weed control at 125 g/ha: 125 g ai/ha
Text: as §1, §2

[17] = test system: ragweed (common ragweed, Ambrosia elatior); experiment: Test A preemergence, ragweed; assay type: in vivo; conditions: Ambrosia artemisiifolia, pre-emergence, 240 h, 0 to 100 scale (0 no effect, 100 complete control), read-out: Plant response rating, Ragweed
Text: as §1, §2

| Structure (SMILES) | plant injury at 250 g/ha [1] | pest or weed control at 31 g/ha [2] | pest or weed control at 125 g/ha [2] | pest or weed control at 31 g/ha [3] | pest or weed control at 125 g/ha [3] | pest or weed control at 31 g/ha [4] | pest or weed control at 125 g/ha [4] | pest or weed control at 31 g/ha [5] | pest or weed control at 125 g/ha [5] | pest or weed control at 250 g/ha [6] | pest or weed control at 250 g/ha [7] | pest or weed control at 31 g/ha [8] | pest or weed control at 125 g/ha [8] | pest or weed control at 31 g/ha [9] | pest or weed control at 125 g/ha [9] | pest or weed control at 31 g/ha [10] | pest or weed control at 125 g/ha [10] | Corn plant response rating (crop injury, 0 = no effect, 100 = complete kill) at 31 g/ha [11] | Corn plant response rating (crop injury, 0 = no effect, 100 = complete kill) at 125 g/ha [11] | pest or weed control at 31 g/ha [12] | also measured |
| --- | --- | --- | --- | --- | --- | --- | --- | --- | --- | --- | --- | --- | --- | --- | --- | --- | --- | --- | --- | --- | --- |
| O=C1Cc2cccc(Oc3ncc(Cl)cn3)c2C(CCCC(F)(F)F)O1 (stereo not drawn) [Compound 17, 8-[(5-Chloro-2-pyrimidinyl)oxy]-1,4-dihydro-1-(4,4,4-trifluorobutyl)-3H-2-benzopyran-3-one] | 0% | 10% | 70% | 0% | 10% | 10% | 10% | 60% | 100% | 0% | 0% | 0% | 10% | 40% | 90% | 20% | 50% | 20% | 20% | 30% | pest or weed control at 125 g/ha [12]: 70%; pest or weed control at 31 g/ha [13]: 10%; pest or weed control at 125 g/ha [13]: 50%; plant injury at 31 g/ha [14]: 0%; plant injury at 125 g/ha [14]: 10%; pest or weed control at 31 g/ha [15]: 50%; pest or weed control at 125 g/ha [15]: 70%; pest or weed control at 31 g/ha [16]: 0%; pest or weed control at 125 g/ha [16]: 60%; pest or weed control at 31 g/ha ([17]; 31 g ai/ha): 0%; pest or weed control at 125 g/ha ([17]; 125 g ai/ha): 0% |
| FC(F)(F)CCC1COc2cccc(Oc3ncc(Cl)cn3)c21 (stereo not drawn) [Compound 36, 5-Chloro-2-[[2,3-dihydro-3-(3,3,3-trifluoropropyl)-4-benzofuranyl]oxy]pyrimidine] | 0% | 0% | 10% | 0% | 0% | 0% | 0% | 0% | 0% | 0% | 50% | 0% | 0% | 10% | 10% | 0% | 0% | 0% | 0% | 30% | pest or weed control at 125 g/ha [12]: 50%; pest or weed control at 31 g/ha [13]: 0%; pest or weed control at 125 g/ha [13]: 0%; plant injury at 31 g/ha [14]: 0%; plant injury at 125 g/ha [14]: 0%; pest or weed control at 31 g/ha [15]: 10%; pest or weed control at 125 g/ha [15]: 10%; pest or weed control at 31 g/ha [16]: 0%; pest or weed control at 125 g/ha [16]: 0% |
